The text below walks through data of patent US20150218212A1, “FLUORINATED EPOXYKETONE-BASED TETRAPEPTIDE COMPOUNDS AND USES THEREOF AS PROTEASOME INHIBITORS” (FLUORINOV PHARMA INC., priority 2012, published 2015).

Experiment [1] has as its target T1, proteasome Chymotrypsin-like (CT-L) activity (Mus musculus, UniProt O09061+O55234).
T1 construct: RBCs were lysed with assay lysis buffer and incubated on ice for 30 minutes; from tissue; host or cells: red blood cells of NOD/SCID mice
Kind of experiment: Pharmacodynamic proteasome activity in murine red blood cells, CT-L. It counts as in vivo, NOD/SCID mice. Conditions: iv, mice, 2 mg/kg i.v. On the procedure:
Cells were harvested by centrifugation at 1,200 rpm at room temperature. Cell pellets were washed with PBS (phosphate buffered saline) and lysed with assay lysis buffer (50 mM HEPES (N-2-hydroxyethylpiperazine-N′-2-ethanesulfonic acid), pH 7.5; 150 mM NaCl; 1% Triton X-100; 2 mM ATP). Cell lysates were incubated on ice for 30 minutes, mixed by vortex every 5 minutes, and then centrifuged at 12,000 g for 10 minutes. The supernatant was transferred to a 96-well plate. For each assay, 10 μg of total protein were incubated for 1 hour at 37° C. with increasing concentrations (1 nM to 10 μM) of test compound diluted in assay buffer (50 mM tris-HCl (tris(hydroxymethyl)aminomethane-HCl), pH 7.5; 150 mM NaCl). DMSO alone was used as a control in every assay plate. After incubation, a specific fluorogenic proteasome substrate was added to each assay reaction at a final concentration of 40 μM in a total volume of 100 μL. N-Succinyl-Leu-Leu-Val-Tyr-7-amino-4-methylcoumarin (Suc-Leu-Leu-Val-Tyr-AMC) was used for measuring chymotrypsin-like (CT-L) activity, t-butoxycarbonyl-Leu-Arg-Arg-7-amino-4-methylcoumarin (Boc-Leu-Arg-Arg-AMC) for trypsin-like (T-L) activity, and benzyloxycarbonyl-L-leucyl-L-leucyl-L-glutamyl-7-amino-4-methylcoumarin (Z-Leu-Leu-Glu-AMC) for caspase-like (C-L) activity. The excitation wavelength was set at 360 nm and the fluorescence emission wavelength of AMC was detected at 460 nm. The fluorescence of free AMC released during the enzymatic reaction was measured with a SpectraMax M5 fluorescent spectrophotometric plate reader (Molecular Devices, Sunnyvale, Calif.). AMC release rate was measured at 37° C. in a kinetic mode, recording every 5 minutes for 30 minutes. Experiments were performed in triplicate and repeated at least twice.
All mouse experiments were performed in accordance with approval from the Ontario Cancer Institute institutional animal review board. Five- to six-week-old male non-obese diabetic/severe combined immunodeficient (NOD/SCID) mice were grouped randomly (n=3 mice per group). Mice were administered vehicle (5% DMSO, 20% Cremophor) or compounds of Formula I at different doses either intravenously or by oral gavage, and venous blood samples (20-50 μL) were collected from each mouse over 24 hours. Blood samples were mixed with heparin (APP Pharmaceuticals; Schaumburg, Ill.) in 0.5 mL tubes in accordance with the manufacturer's instructions. After centrifugal separation at 3,000 g for 10 minutes, red blood cells (RBCs) in the bottom layer were transferred into a new tube and stored at −70° C. until use. RBCs were lysed with assay lysis buffer and incubated on ice for 30 minutes, mixing by vortex every 5 minutes, and then centrifuged at 12,000 g for 10 minutes. The supernatant was transferred to a 96-well plate and proteasome activity was measured as described above for tumor cell lysates.
Proteasome subunit activity (Chymotrypsin-like, Trypsin-like, Caspase-like, CT-L, T-L, C-L, respectively) were monitored over the course of 24 hrs following […] administration of representative compounds of Formula I. NOD/SCID mice were treated with compounds of Formula I (2 mg/kg by iv administration) or vehicle control and carfilzomib for up to 24 hours, as described above. Table 9 summarizes the data on pharmacodynamic activity of representative compounds of Formula I following a dose of 2 mg/kg intravenous (i.v) administration to mice. Data are presented as mean residual activity (SEM) relative to vehicle treated controls.

For a further experiment, the system named is U251. As to the kind of experiment: NCI screening panel, U251 (CNS Cancer). It counts as cell-based, human. The method, then: Representative compounds of Formula I were screened using the National Cancer Institute (NCI) screening panel, which consists of a panel of human tumor cell lines, representing leukemia, melanoma, and cancers of the lung, colon, ovary, breast, prostate and renal system.
After 24 h, two plates of each cell line are fixed in situ with TCA, to represent a measurement of the cell population for each cell line at the time of drug addition (Tz). Experimental drugs are solubilised in dimethyl sulfoxide at 400-fold the desired final maximum test concentration and stored frozen prior to use. At the time of drug addition, an aliquot of frozen concentrate is thawed and diluted to twice the desired final maximum test concentration with complete medium containing 50 μg/mL gentamicin. Additional four, 10-fold or ½ log serial dilutions are made to provide a total of five drug concentrations plus control. Aliquots of 100 μl of these different drug dilutions are added to the appropriate microtiter wells already containing 100 μl of medium, resulting in the required final drug concentrations.
Following drug addition, the plates are incubated for an additional 48 h at 37° C., 5% CO2, 95% air, and 100% relative humidity. For adherent cells, the assay is terminated by the addition of cold TCA (trichloroacetic acid). Cells are fixed in situ by the gentle addition of 50 μl of cold 50% (w/v) TCA (final concentration, 10% TCA) and incubated for 60 minutes at 4° C. The supernatant is discarded, and the plates are washed five times with tap water and air dried. Sulforhodamine B (SRB) solution (100 μl) at 0.4% (w/v) in 1% acetic acid is added to each well, and plates are incubated for 10 minutes at room temperature. After staining, unbound dye is removed by washing five times with 1% acetic acid and the plates are air dried. Bound stain is subsequently solubilised with 10 mM trizma base, and the absorbance is read on an automated plate reader at a wavelength of 515 nm. For suspension cells, the methodology is the same except that the assay is terminated by fixing settled cells at the bottom of the wells by gently adding 50 μl of 80% TCA (final concentration, 16% TCA). Using the seven absorbance measurements [time zero, (Tz), control growth, (C), and test growth in the presence of drug at the five concentration levels (Ti)], the percentage growth is calculated at each of the drug concentrations levels. Percentage growth inhibition is calculated as: [(Ti−Tz)/(C−Tz)]×100 for concentrations for which Ti>/=Tz and [(Ti−Tz)/Tz]×100 for concentrations for which Ti<Tz.
Three dose response parameters are calculated for each experimental agent. Growth inhibition of 50% (GI50) is calculated from [(Ti−Tz)/(C−Tz)]×100=50, which is the drug concentration resulting in a 50% reduction in the net protein increase (as measured by SRB staining) in control cells during the drug incubation. The drug concentration resulting in total growth inhibition (TGI) is calculated from Ti=Tz. The LC50 (concentration of drug resulting in a 50% reduction in the measured protein at the end of the drug treatment as compared to that at the beginning) indicating a net loss of cells following treatment is calculated from [(Ti−Tz)/Tz]×100=−50. Values are calculated for each of these three parameters if the level of activity is reached. However, if the effect is not reached or is exceeded, the value for that parameter is expressed as greater or less than the maximum or minimum concentration tested.

Where two headings read alike, the source gives them in different places.

For `CC(C)C[C@H](NC(=O)[C@H](COC(F)F)NC(=O)CN1CCOCC1)C(=O)N[C@@H](Cc1ccccc1)C(=O)N[C@@H](Cc1ccccc1)C(=O)[C@@]1(C)CO1` [Example 3, (2S)-N-[(1S)-1-benzyl-2-[[(1S)-1-benzyl-2-[(2R)-2-methyloxiran-2-yl]-2-oxo-ethyl]amino]-2-oxo-ethyl]-2-[[(2S)-3-(difluoromethoxy)-2-[(2-morpholinoacetyl)-amino]propanoyl]amino]-4-methyl-pentan-amide], in experiment [1] (30 min, read-out: Chymotrypsin-like (CT-L) mean residual activity relative to vehicle treated controls), the remaining activity at 2 mg/kg is 29%. Also, the remaining activity at 2 mg/kg in experiment [1] (24 hrs, read-out: Chymotrypsin-like (CT-L) mean residual activity relative to vehicle treated controls) came out at 31%. In addition, the remaining activity at 2 mg/kg in experiment [1] (time 0, read-out: Chymotrypsin-like (CT-L) mean residual activity relative to vehicle treated controls) was 100%. In the experiment on U251, this compound displayed a Log10GI50 of less than −8.00, a Log10LC50 of −5.14 and a Log10TGI50 of −6.79.
